Measurements: patent US9073955B2, “2-amino-4-arylthiazole compounds as TRPA1 antagonists” (Glenmark Pharmaceuticals, S.A., priority 2010, dated 2015)
Like-named read-outs stand apart in the source and are kept apart here.

Experiments:
[1] = Determination of solubility by shake flask method (water); assay type: physicochemical; settings: for solubility at 15 min: thermodynamic from solid, water, 37° C., shake flask
Experimental: About 1 mg of test substance was taken in test tube and water was added in the increment of 1 ml with shaking after addition of media (water). Solubility was observed visually also. After completion of addition of 10 ml volume of media (water), test tube containing sample solution were put on a mechanical shaker set at 37° C. and 200 rpm for shaking up to 15 minute. After shaking, content of flask was filtered through 0.45μ filter. This filtered solution is analyzed using HPLC method for quantification. A sample solution of 1 mg in 10 ml of DMSO is used as reference standard for quantifying dissolved test substance in media. Solubility is expressed as mcg/ml.
Aqueous solubility of ‘P’ substituted thiazole compounds and the parent thiazole compounds were determined using the above described procedure and the results are given Table 3.

[2] = Rat pharmacokinetic (PK) study, oral suspension; assay type: in vivo, male rats (Sprague Dawley); settings: for Cmax / AUC(0-t): rat, plasma, parent thiazole compound of the example, male Sprague Dawley rats, oral suspension; for AUC(0-t): read-out: AUC0-24; for pharmacokinetic properties (Cmax and AUC) compared to the parent thiazole acetamide: compared with the corresponding parent compound of formula (1)
Experimental: PK values were obtained in male rats (strain: Sprague Dawley) orally dosed with the compounds of the present invention as suspension. Accurately weighed quantity of compound of present invention (corrected for purity and salt factor) was transferred into a clean and dry mortar. To this mortar was added 2.5 μL/mL Tween 80 and triturated until the compound gets properly wet. To this, 0.5% (w/v) methyl cellulose suspension was added in geometric proportions and triturated thoroughly to form a uniform suspension.
Animals were provided with food and water ad libitum through out the study period. Animals were dosed orally with the compounds using a gavage needle at 10 mL/kg body weight. Blood samples (250 μl approx.) were collected from male Sprague Dawley retro orbital sinus using rat capillary tubes into 0.6 mL eppendorf tubes with tripotassium ethylenediaminetetraacetic acid (K3 EDTA) (25 μL) as anticoagulant. Samples were collected at 0.5, 1.0, 2.0, 4.0, 6.0, 8.0, 12.0 and 24.0 hr post dosing for compounds. Then samples were centrifuged immediately at 1000 g for 10 min. at 4° C. Plasma samples were separated and stored at −70° C. till analysis. Samples were processed and analyzed using LCMS/MS. Pharmacokinetic parameters were calculated using Winonlin software. Table 4 provides the pK values (Cmax, AUC) obtained in these studies.

[3] = biological target: T1, Human TRPA1 (Homo sapiens, UniProt O75762); experiment: 45Calcium uptake assay: inhibition of AITC induced cellular uptake of radioactive calcium; assay type: cell-based; settings: human TRPA1 expressing CHO cells, AITC 30 μM; for inhibition at 1 µM: read-out: Percentage inhibition at 1.0 μM; for inhibition at 10 µM: read-out: Percentage inhibition at 10.0 μM
T1 construct: expressed in transfected cells; host or cells: CHO cells (grown with 400 μg/ml G-418)
T1 sequence (O75762 whole entry): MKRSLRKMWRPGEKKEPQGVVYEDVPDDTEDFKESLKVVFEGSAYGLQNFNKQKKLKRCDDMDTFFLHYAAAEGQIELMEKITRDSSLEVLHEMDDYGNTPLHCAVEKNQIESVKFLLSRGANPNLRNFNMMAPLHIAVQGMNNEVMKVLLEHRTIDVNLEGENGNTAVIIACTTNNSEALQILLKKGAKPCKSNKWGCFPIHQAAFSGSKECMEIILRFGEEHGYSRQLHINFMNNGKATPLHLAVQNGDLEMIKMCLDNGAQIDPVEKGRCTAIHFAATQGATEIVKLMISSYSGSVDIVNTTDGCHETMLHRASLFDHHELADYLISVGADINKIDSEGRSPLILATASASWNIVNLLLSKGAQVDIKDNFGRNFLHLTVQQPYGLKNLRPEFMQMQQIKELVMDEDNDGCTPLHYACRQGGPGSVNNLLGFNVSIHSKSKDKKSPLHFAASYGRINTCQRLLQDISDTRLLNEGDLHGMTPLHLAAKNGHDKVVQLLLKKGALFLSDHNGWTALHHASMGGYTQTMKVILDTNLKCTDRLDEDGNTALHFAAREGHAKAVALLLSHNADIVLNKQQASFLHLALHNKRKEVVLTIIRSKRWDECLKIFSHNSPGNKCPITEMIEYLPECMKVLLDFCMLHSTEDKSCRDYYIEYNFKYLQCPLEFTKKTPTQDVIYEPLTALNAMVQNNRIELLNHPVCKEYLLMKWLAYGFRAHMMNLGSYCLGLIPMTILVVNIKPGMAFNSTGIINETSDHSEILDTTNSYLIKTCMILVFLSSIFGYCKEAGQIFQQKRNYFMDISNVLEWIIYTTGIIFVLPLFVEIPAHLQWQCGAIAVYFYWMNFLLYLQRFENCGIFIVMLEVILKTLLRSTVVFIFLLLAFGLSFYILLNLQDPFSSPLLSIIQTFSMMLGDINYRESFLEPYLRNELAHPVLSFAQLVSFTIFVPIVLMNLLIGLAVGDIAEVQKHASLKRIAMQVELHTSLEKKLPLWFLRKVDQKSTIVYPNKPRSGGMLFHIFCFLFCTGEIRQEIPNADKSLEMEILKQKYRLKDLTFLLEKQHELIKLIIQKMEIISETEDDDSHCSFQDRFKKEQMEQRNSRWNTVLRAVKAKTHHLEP
Experimental: The illustrative examples of the present invention were screened for TRPA1 activity according to a modified procedure described in (a) Tóth, A. et al. Life Sciences, 2003, 73, 487-498. ([…]. et al, Proc. Natl. Acad. Sci. U.S.A., 2007, 104, 13525-13530. The screening of the compounds can be carried out by other methods and procedures known to persons skilled in the art. Screening for TRPA1 Antagonist Using the ^45Calcium Uptake Assay: The inhibition of TRPA1 receptor activation was measured as inhibition of allyl isothiocyanate (AITC) induced cellular uptake of radioactive calcium. Test compounds were dissolved in 100% DMSO to prepare 10 mM stock and then diluted using plain medium with 0.1% BSA and 1.8 mM CaCl2 to get the desired concentration. The final concentration of DMSO in the reaction was 0.5% (v/v). Human TRPA1 expressing CHO cells were grown in F-12 DMEM medium with 10% FBS, 1% penicillin-streptomycin solution, and 400 μg/ml of G-418. Cells were seeded 24 h prior to the assay in 96 well plates so as to get 50,000 cells per well on the day of experiment. Cells were treated with the test compounds for 10 minutes followed by the addition of AITC at a final concentration of 30 μM and 5 μCi/ml^45Ca^+2 for 3 minutes. Cells were washed and lysed using a buffer containing 1% Triton X-100, 0.1% deoxycholate and 0.1% SDS. Radioactivity in the lysate was measured in a Packard TopCount after addition of liquid scintillant. (Toth et al, Life Sciences (2003) 73, 487-498; McNamara C R et al, Proceedings of the National Academy of Sciences, (2007) 104, 13525-13530). Concentration response curves were plotted as a % of maximal response obtained in the absence of test antagonist. IC50 values can be calculated from concentration response curve by nonlinear regression analysis using GraphPad PRISM software.

[4] = parent thiazole compound of the example
[5] = ‘P’ substituted thiazole compound

With Cn1c(=O)c2c(CC(=O)Nc3nc(-c4ccc(F)c(C(F)(F)F)c4F)cs3)csc2n(C)c1=O [parent of Example 10, N-{4-[2,4-difluoro-3-(trifluoromethyl)phenyl]-1,3-thiazol-2-yl}-2-(1,3-dimethyl-2,4-dioxo-1,2,3,4-tetrahydrothieno[2,3-d]pyrimidin-5-yl)acetamide, reference compound] the solubility at 15 min [1, 4] was under 0.2 µg/mL, the Cmax [2] was under 250 ng/mL and the AUC(0-t) [2] was under 4000 ng·h/mL.

With Cn1c(=O)c2c(CC(=O)/N=c3\scc(-c4ccc(C(F)(F)F)c(F)c4)n3COP(=O)(O)O)csc2n(C)c1=O [Example 11, [2-{[(1,3-Dimethyl-2,4-dioxo-1,2,3,4-tetrahydrothieno[2,3-d]pyrimidin-5-yl)acetyl]imino}-4-[3-fluoro-4-(trifluoromethyl)phenyl]-1,3-thiazol-3 (2H)-yl]methyl dihydrogen phosphate] the inhibition at 1 µM ([3]; 1.0 μM) was 53.4%, the inhibition at 10 µM [3] was 99.8% and the IC50 [3] was over 500 nM. The “aqueous solubility over the parent thiazole acetamide” value ([1]; compared with the corresponding parent compound of formula (1)) was “better aqueous solubility” and the “pharmacokinetic properties (Cmax and AUC) compared to the parent thiazole acetamide” value [2] was “better pharmacokinetic properties”.

Cn1nc2c(c1CC(=O)Nc1nc(-c3ccc(F)c(C(F)(F)F)c3F)cs1)c(=O)n(C)c(=O)n2C [parent of Example 28, N-(4-(2,4-difluoro-3-(trifluoromethyl)phenyl)thiazol-2-yl)-2-(2,5,7-trimethyl-4,6-dioxo-4,5,6,7-tetrahydro-2H-pyrazolo[3,4-d]pyrimidin-3-yl)acetamide, reference compound] showed a solubility at 15 min [1, 4] of under 0.1 µg/mL, a Cmax [2] of under 500 ng/mL and an AUC(0-t) [2] of under 7000 ng·h/mL.

In the case of Cn1nc2c(c1CC(=O)/N=c1\scc(-c3ccc(F)c(C(F)(F)F)c3F)n1COP(=O)(O)O)c(=O)n(C)c(=O)n2C [Example 28, 4-(2,4-Difluoro-3-(trifluoromethyl)phenyl)-2-((2-(2,5,7-trimethyl-4,6-dioxo-4,5,6,7-tetrahydro-2H-pyrazolo[3,4-d]pyrimidin-3-yl)acetyl)imino)thiazol-3 (2H)-yl)methyl dihydrogen phosphate], the inhibition at 1 µM ([3]; CHO, 1.0 μM) is reported as 29.5%, the inhibition at 10 µM ([3]; CHO) is reported as 92.4% and the IC50 [3] is reported as over 500 nM. For the same molecule, the solubility at 15 min [1, 5] was over 30 µg/mL and the “pharmacokinetic properties (Cmax and AUC) compared to the parent thiazole acetamide” value [2] was “better pharmacokinetic properties”.

In the case of Cc1oc2c(c1CC(=O)/N=c1\scc(-c3ccc(OC(F)(F)F)c(Cl)c3)n1COP(=O)(O)O)c(=O)n(C)c(=O)n2C [Example 25, [4-[3-Chloro-4-(trifluoromethoxy)phenyl]-2-{[(1,3,6-trimethyl-2,4-dioxo-1,2,3,4-tetrahydrofuro[2,3-d]pyrimidin-5-yl)acetyl]imino}-1,3-thiazol-3 (2H)-yl]methyl dihydrogen phosphate], the “Percentage inhibition at 1.0 μM” value ([3]; 1.0 μM) is reported as 46.47%, the inhibition at 10 µM ([3]; CHO) is reported as 97.8% and the IC50 [3] is reported as over 500 nM. The solubility at 15 min [1, 5] was over 10 µg/mL and the “pharmacokinetic properties (Cmax and AUC) compared to the parent thiazole acetamide” value [2] was “better pharmacokinetic properties”.

For Cc1oc2c(c1CC(=O)Nc1nc(-c3ccc(OC(F)(F)F)c(Cl)c3)cs1)c(=O)n(C)c(=O)n2C [parent of Example 25, N-{4-[3-chloro-4-(trifluoromethoxy)phenyl]-1,3-thiazol-2-yl}-2-(1,3,6-trimethyl-2,4-dioxo-1,2,3,4-tetrahydrofuro[2,3-d]pyrimidin-5-yl)acetamide, reference compound], the solubility at 15 min [1, 4] was under 1.1 µg/mL, the Cmax [2] was under 250 ng/mL and the AUC(0-t) [2] was under 3000 ng·h/mL.
